In US9561212B2, “Hepatitis C virus inhibitors” (BRISTOL-MYERS SQUIBB COMPANY, priority 2012, dated 2017):

system: HCV 1b genotype; assay: microbe, parasite or virus in culture; format: cell-based, Hepatitis C virus; settings: HCV 1b replicon; read-out: Range: EC50 ranges against HCV 1b
Experimental: An HCV Replicon assay was utilized in the present disclosure, and was prepared, conducted and validated as described in commonly owned PCT/US2006/022197 and in O'Boyle et. al. Antimicrob Agents Chemother. 2005 April; 49(4):1346-53. Assay methods incorporating luciferase reporters have also been used as described (Apath.com).
HCV-neo replicon cells and replicon cells containing resistance substitutions in the NS5A region were used to test the currently described family of compounds.

`COC(=O)NC(C(=O)N1[C@@H]2C[C@@H]2C[C@H]1c1nc(-c2ccc(-c3ccc(-c4c[nH]c([C@@H]5C[C@H]6C[C@H]6N5C(=O)C(NC(=O)OC)C5C[C@@H]6C[C@@H]6C5)n4)cc3)cc2)c[nH]1)C1C[C@@H]2C[C@@H]2C1` (single isomer, unassigned; diastereomer 2) [QC3.2] was tested, and the EC50 was 0.00501 to 0.1 nM.

same assay, conditions: Hepatitis C virus, HCV 1b replicon; read-out: 1b (μM): EC50 (Effective 50% inhibitory concentration) against the HCV 1b genotype

Work on `COC(=O)NC(C(=O)N1[C@@H](C)CC[C@H]1c1ncc(-c2ccc(-c3ccc(-c4cnc([C@@H]5CC[C@H](C)N5C(=O)C(NC(=O)OC)C5CC6(CC6)C5)[nH]4)cc3)cc2)[nH]1)C1CC2(CC2)C1` (stereo partly drawn) [Example 5.2] yielded an EC50 of 9.07 nM.

same assay, conditions: Hepatitis C virus, HCV 1b replicon; read-out: Range: EC50 ranges against HCV 1b

First: COC(=O)NC(C(=O)N1[C@@H]2C[C@@H]2C[C@H]1c1ncc(-c2ccc(-c3ccc(-c4cnc([C@@H]5C[C@H]6C[C@H]6N5C(=O)[C@@H](NC(=O)OC)C(C)C)[nH]4)cc3)cc2)[nH]1)C1CCOC2(CC2)C1 (stereo partly drawn) [OL3, methyl ((2S)-1-((1R,3S,5R)-3-(5-(4′-(2-((1R,3S,5R)-2-(((methoxycarbonyl)amino)(4-oxaspiro[2.5]oct-7-yl)acetyl)-2-azabicyclo[3.1.0]hex-3-yl)-1H-imidazol-5-yl)biphenyl-4-yl)-1H-imidazol-2-yl)-2-azabicyclo[3.1.0]hex-2-yl)-3-methyl-1-oxobutan-2-yl)carbamate]
Second: COC(=O)NC(C(=O)N1[C@@H](C)CC[C@H]1c1ncc(-c2ccc(-c3ccc(-c4cnc([C@@H]5CC[C@H](C)N5C(=O)C(NC(=O)OC)C5CC6(CC6)C5)[nH]4)cc3)cc2)[nH]1)C1CC2(CC2)C1 (stereo partly drawn) [Example 5.2]
The EC50 of the first is lower: 0.00501 to 0.1 nM for the first, 0.9 to 700 nM for the second. The first is the more potent here.

`COC(=O)N[C@H](C(=O)N1C[C@H](CC2CC2)C[C@H]1c1nc(-c2ccc(-c3ccc(-c4c[nH]c([C@@H]5C[C@@H](CC6CC6)CN5C(=O)[C@@H](NC(=O)OC)C5C[C@@H](C)O[C@H](C)C5)n4)cc3)cc2)c[nH]1)C1C[C@@H](C)O[C@H](C)C1` (stereo partly drawn) [Example JLR-2.0, dimethyl (4,4′-biphenyldiylbis(1H-imidazole-4,2-diyl((2S,4R)-4-(cyclopropylmethyl)-2,1-pyrrolidinediyl)((1S)-1-((2R,6R)-2,6-dimethyltetrahydro-2H-pyran-4-yl)-2-oxo-2,1-ethanediyl)))biscarbamate] and `C#C[C@H]1CC[C@@H](c2ncc(-c3ccc(-c4ccc(-c5cnc([C@@H]6CC[C@H](C#C)N6C(=O)[C@@H](NC(=O)OC)C6C[C@@H](C)O[C@H](C)C6)[nH]5)cc4)cc3)[nH]2)N1C(=O)[C@@H](NC(=O)OC)C1C[C@@H](C)O[C@H](C)C1` (stereo partly drawn) [Example 10, dimethyl (4,4′-biphenyldiylbis(1H-imidazole-5,2-diyl((2S,5R)-5-ethynyl-2,1-pyrrolidinediyl)((1S)-1-((2R,6R)-2,6-dimethyltetrahydro-2H-pyran-4-yl)-2-oxo-2,1-ethanediyl)))biscarbamate] fall in the same range of EC50: 0.00501 to 0.1 nM for the first, 0.00501 to 0.1 nM for the second.

Compared with `COC(=O)N[C@H](C(=O)N1[C@@H](C)CC[C@H]1c1ncc(-c2ccc(-c3ccc(-c4cnc([C@@H]5CC[C@H](C)N5C(=O)[C@@H](NC(=O)OC)[C@@H]5CCO[C@H](C6CC6)C5)[nH]4)cc3)cc2)[nH]1)[C@@H]1CCO[C@H](C2CC2)C1` [Example 7], `COC(=O)N[C@H](C(=O)N1[C@@H]2C[C@@H]2C[C@H]1c1nc(-c2ccc(-c3ccc(-c4c[nH]c([C@@H]5C[C@H]6C[C@H]6N5C(=O)[C@@H](NC(=O)OC)C5CCC(=O)CC5)n4)cc3)cc2)c[nH]1)C1CCC(=O)CC1` [Example OL10, dimethyl (4,4′-biphenyldiylbis(1H-imidazole-4,2-diyl(1R,3S,5R)-2-azabicyclo[3.1.0]hexane-3,2-diyl((1S)-2-oxo-1-(4-oxocyclohexyl)-2,1-ethanediyl)))biscarbamate] is higher in EC50: 0.00501 to 0.1 nM for the first, 0.1 to 0.9 nM for the second.

Molecule `COC(=O)N[C@H](C(=O)N1[C@@H]2C[C@@H]2C[C@H]1c1nc(-c2ccc(-c3ccc(-c4c[nH]c([C@@H]5C[C@H]6C[C@H]6N5C(=O)[C@@H](NC(=O)OC)C56CC(C(F)(F)F)(C5)C6)n4)cc3)cc2)c[nH]1)C12CC(C(F)(F)F)(C1)C2` [Example OL11, dimethyl (4,4′-biphenyldiylbis(1H-imidazole-4,2-diyl(1R,3S,5R)-2-azabicyclo[3.1.0]hexane-3,2-diyl((1S)-2-oxo-1-(3-(trifluoromethyl)bicyclo[1.1.1]pent-1-yl)-2,1-ethanediyl)))biscarbamate] has an EC50 of 0.00501 to 0.1 nM.
